Several values for one entry are separate records, joined by “and”; a condition that tells them apart may be missing. Equal values may be shown once. Bridge positions count the residues as written; N and C are the ends. Square brackets hold non-standard residues; d marks the D form. Peptide text beside a SMILES is read from it. * marks the point of attachment. Tyr(3-tBu) = CC(C)(C)c1cc(C[C@H](N)C(=O)O)ccc1O; Ahx = NCCCCCC(=O)O; GABA = NCCCC(=O)O; βAla = NCCC(=O)O; tBu = CC(C)(C)*
What was measured:
Motilin receptor = Motilin receptor (Oryctolagus cuniculus, UniProt A5A4K8); assay: Inhibition of the motilin receptor (MTL-R)
Chain of Motilin receptor (A5A4K8 whole entry): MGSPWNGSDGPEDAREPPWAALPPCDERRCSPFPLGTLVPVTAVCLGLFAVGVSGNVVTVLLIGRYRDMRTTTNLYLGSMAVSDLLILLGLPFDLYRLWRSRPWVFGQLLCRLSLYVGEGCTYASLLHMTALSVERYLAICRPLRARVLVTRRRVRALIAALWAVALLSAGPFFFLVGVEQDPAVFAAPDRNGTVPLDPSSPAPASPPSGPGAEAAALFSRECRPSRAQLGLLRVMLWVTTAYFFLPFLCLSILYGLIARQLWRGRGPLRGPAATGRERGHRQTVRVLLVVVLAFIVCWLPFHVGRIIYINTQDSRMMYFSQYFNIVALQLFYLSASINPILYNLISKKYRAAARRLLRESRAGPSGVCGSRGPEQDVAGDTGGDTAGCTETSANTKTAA

Oryctolagus cuniculus [1] = species on record: Oryctolagus cuniculus; assay: pA2 (Contractile potency) is the negative logarithm of the molar concentration of antagonist causing a 2-fold shift to the right of the concentration response curve for motilin; assay type: functional, organism-based; settings: read-out: pA2 (converted)
Oryctolagus cuniculus [2] = species on record: Oryctolagus cuniculus; assay: Concentration of compound causing 50% inhibition of the smooth muscle contractile activity; assay type: functional, organism-based; settings: Muscle tissue

| Compound | IC50 (Motilin receptor) | Kb (Oryctolagus cuniculus [1]) | EC50 (Oryctolagus cuniculus [2]) |
| --- | --- | --- | --- |
| CC(C)(C)c1cc(CC2NC(=O)[C@@H](NC(=O)C(N)Cc3ccccc3)CCCCNC(=O)CCNC2=O)ccc1O (stereo not given in full) | 2100 nM | 2190 nM | > 100000 nM |
| CC(C)(C)c1cc(C[C@@H]2NC(=O)[C@@H](NC(=O)[C@@H](N)Cc3ccccc3)CCCCNC(=O)CCNC2=O)ccc1O | 10 nM | 42.7 nM | > 100000 nM |
| CC(C)(C)c1cc(C[C@H]2NC(=O)[C@@H](NC(=O)[C@@H](N)Cc3ccccc3)CCCCNC(=O)CCNC2=O)ccc1O | 3100 nM | 5370 nM | > 100000 nM |
| CCC(C)Oc1ccc(C[C@@H]2NC(=O)[C@@H](NC(=O)[C@@H](N)Cc3ccccc3)CCCCNC(=O)CCNC2=O)cc1 (stereo not given in full) | 480 nM | – | – |
| CC(C)(C)c1cc(C[C@@H]2NC(=O)[C@@H](NC(=O)[C@@H](N)Cc3ccccc3)CCCCNC(=O)CCNC2=O)cc(C(C)(C)C)c1O | 460 nM | – | > 10000 nM |
| CC(C)(C)Oc1ccc(C[C@@H]2NC(=O)[C@@H](NC(=O)[C@@H](N)Cc3ccccc3)CCCCNC(=O)CCNC2=O)cc1 (H-FKY(tBu)[βAla]; lactam 2-C) | 7500 nM | 120000 nM | > 100000 nM |
| N[C@@H](Cc1ccccc1)C(=O)N[C@H]1CCCCNC(=O)CCNC(=O)[C@H](Cc2ccc(O)cc2)NC1=O (H-FKY[βAla]; lactam 2-C) | 25000 nM and 42000 nM | 89100 nM | > 100000 nM |
| CC(C)(C)c1cc(C[C@@H]2NC(=O)[C@@H](NC(=O)[C@@H](N)Cc3ccccc3)CCCCNC(=O)CNC2=O)ccc1O (H-FK[Tyr(3-tBu)]G; lactam 2-C) | 7 nM and 33 nM | 46.8 nM | > 100000 nM |
| CC(C)(C)c1cc(C[C@@H]2NC(=O)[C@@H](NC(=O)[C@@H](N)Cc3ccccc3)CCCCNC(=O)CCCCCNC2=O)ccc1O (H-FK[Tyr(3-tBu)][Ahx]; lactam 2-C) | 17 nM and 65 nM | 83.2 nM | > 100000 nM |
| CC(C)(C)c1cc(C[C@@H]2NC(=O)[C@@H](NC(=O)[C@@H](N)Cc3ccccc3)CCCCNC(=O)CCCNC2=O)ccc1O (H-FK[Tyr(3-tBu)][GABA]; lactam 2-C) | 33 nM and 59 nM | 34.7 nM | > 100000 nM |
| CC(C)(C)c1cc(C[C@@H]2NC(=O)[C@@H](NC(=O)C(N)Cc3ccccc3)CCCCNC(=O)CCNC2=O)ccc1O (single isomer, unassigned) | 1800 nM | 2000 nM | > 100000 nM |

From ChEMBL document CHEMBL1135706, “Design and synthesis of motilin antagonists derived from the [1-4] fragment of porcine motilin” (J Med Chem, 2002)
